Experimental data from article PMC10740580, “Benzothiazole-Phthalimide Hybrids as Anti-Breast Cancer and Antimicrobial Agents” (Antibiotics, 2023).
≈ marks a conversion by molar mass, not a printed value.

How the values were obtained:
MCF-7 cells = test: MTT cell viability assay, MCF-7; format: cell-based, human; settings: mean ± SD; for IC50: Homo sapiens, MCF7, 72 h exposure
Experimental: (§1) The anticancer activity of the studied compounds (3a–h) was explored with regards to two human breast cancer cell lines, namely the estrogen receptor positive (ER+) MCF-7 cells and the triple negative MDA-MB-231 cells (ER-, PR-, and HER-2/Neu-). Cells were continuously exposed to the test substances for 72 h, after which their viability was assessed by means of the MTT assay. Table 2 lists the determined IC50 values for the investigated substances and the reference drug, thalidomide. […] Additionally, the same test for all the compounds has been performed on nonmalignant breast epithelial cells (MCF-10A) to ascertain their potential cytotoxicity.
(§2) The four cell lines used in this work (MCF-7, MDA-MB-231, MCF-10A, and 3T3-L1) were obtained from the American Type Culture Collection (ATCC, Manassas, VA, USA). All cell lines were maintained at 37 °C in a humidified atmosphere of 95% air and 5% CO2 and periodically screened for contamination. MCF-7, human breast cancer cells estrogen receptor (ER)-positive, and human breast cancer triple negative MDA-MB231 were grown in DMEM-F12 medium containing 2 mmol/L L-glutamine, 1 mg/mL penicillin–streptomycin, and 5% newborn calf serum (NCS) or 5% fetal bovine serum (FBS), respectively. MCF-10A human mammary epithelial cells were cultured in DMEM/F12 medium, supplemented with 5% horse serum (HS) (Eurobio, Les Ullis, Cedex, France), 100 U/mL penicillin/streptomycin, […], 20 ng/mL hEGF (human epidermal growth factor), […], and […] (Sigma-Aldrich, Milano, Italy). BALB/3T3 murine fibroblast cells were cultured in DMEM high glucose supplemented with 10% bovine calf serum (BCS), 1% L-glutamine, and 100 U/mL penicillin/streptomycin.
(§3) Cell viability was evaluated by means of the 3-(4,5-dimethylthiazol-2-y1)-2,5-diphenyltetra zolium bromide (MTT, Sigma-Aldrich, Milan, Italy) assay. On 48-well plates, cells were seeded, and they were cultured in complete medium. Before being treated, cells were starved in serum-free medium for 24 h to allow cell cycle synchronization. Subsequently, cells were exposed to increasing doses of each compound for 72 h in phenol-red-free media supplemented with 1% serum before fresh MTT was added to each well (final concentration: 0.5 mg/mL). Cells were lysed with DMSO after 2 h of incubation at 37 °C, and optical density at 570 nm was then determined with a microplate reader. Using GraphPad Prism 9 software (GraphPad Inc., San Diego, CA, USA), the mean absorbance for each sample was expressed as a percentage over the control and plotted vs. drug concentrations to establish the IC50 values. The given standard deviations (SDs) are indicative of three separate tests carried out in triplicate.

MCF-10A cells = test: MTT cell viability assay, nonmalignant MCF-10A; format: cell-based; settings: Homo sapiens, 72 h exposure, nonmalignant breast epithelial cells, mean ± SD, read-out: IC50 MCF10-A
Experimental: as §1, §2, §3

[1] = system: Acinetobacter baumanii 19606; test: Broth microdilution, A. baumanii 19606; format: cell-based; settings: Acinetobacter baumannii, 24 h, 37 °C, read-out: MIC A.b. 19606
Candida albicans 10231 = test: Antifungal microdilution, C. albicans ATCC 10231; format: cell-based; settings: microdilution CLSI M27-A3, 48 h, 37 °C
Experimental: In accordance with CLSI guidelines, compounds 3a–h were tested against a variety of fungal strains (Candida albicans 10231, Candida albicans 90028, Candida glabrata 15126, and Candida parapsilosis 22019) belonging to the ATCC collection. Amphotericin B was utilized as a reference drug. A similar trend of results, or even better than that obtained against bacteria, was assessed against fungal strains. […] Also, in this case, compound 3h emerged as the best of the series, with MICs of 16 μg/mL against Candida glabrata and Candida parapsilosis strains and 32 μg/mL against Candida albicans strains.
A microdilution technique described by the Clinical and Laboratory Standards Institute (CLSI, M27-A3) was used to assess the antifungal activity. The following fungal strains, belonging to the ATCC collection and available as freeze-dried discs, were used: C. albicans ATCC 10231, C. albicans ATCC 90028, C. glabrata ATCC 15126, and C. parapsilosis ATCC 22019. Stock solutions were prepared and preserved with purity as previously described for the antibacterial studies. Each yeast strain’s pre-cultures were made in Sabouraud broth (SAB) and allowed to grow until they stopped at 37 °C. By using a spectrophotometric technique (530 nm, range 0.12–0.15), the turbidity of the yeast stock suspension was calibrated to 0.5 McFarland Standard. Next, the standardized suspension was diluted first at 1:50 with SAB and then at 1:20 in the same medium to have […]. A total of 100 µL of inoculum was seeded into each well. As a control for growth, several wells containing only inoculated broth were prepared. The plates were incubated for 48 h at 37 °C, and the MIC values were calculated as the final well with no fungal growth. […] MIC values were observed based on the absence of fungal growth in the final well. The MICs were calculated by conducting the antifungal test three times in duplicate. As a control, amphotericin B was used.

Row | SMILES | IC50 (MCF-7 cells) [µM] | MIC [1] [µg/mL] | MIC (Candida albicans 10231) [µg/mL] | IC50 MCF-7 (MCF-7 cells; 72 h exposure) | IC50 (MCF-10A cells) [µM]
1 | O=C1c2ccccc2C(=O)N1c1nc2ccccc2s1 [3a, 2-(1,3-benzothiazol-2-yl)-1H-isoindole-1,3(2H)-dione] | 165.5 ± 1.1 | 64 (≈ 228 µM) | 64 (≈ 228 µM) | – | > 500
2 | COc1cc2nc(N3C(=O)c4ccccc4C3=O)sc2cc1OC [3f, 2-[5,6-Dimethoxy-1,3-benzothiazol-2-yl]-1H-isoindole-1,3(2H)-dione] | 93 ± 1.4 | 64 (≈ 188 µM) | 32 (≈ 94 µM) | – | > 500
3 | O=C1c2ccccc2C(=O)N1c1nc2ccc(O)cc2s1 [3g, 2-[6-Hydroxy-1,3-benzothiazol-2-yl]-1H-isoindole-1,3(2H)-dione] | 71.2 ± 0.7 | 64 (≈ 216 µM) | 32 (≈ 108 µM) | – | > 500
4 | O=C1c2ccccc2C(=O)N1c1nc2ccc(Oc3ccccc3)cc2s1 [3h, 2-[6-Phenoxy-1,3-benzothiazol-2-yl]-1H-isoindole-1,3(2H)-dione] | 26.2 ± 0.9 | 32 (≈ 85.9 µM) | 32 (≈ 85.9 µM) | – | 193.9 ± 1

Now from value to molecule, other results behind:

Row | IC50 (MCF-7 cells) [µM] | MIC [1] [µg/mL] | MIC (Candida albicans 10231) [µg/mL] | IC50 MCF-7 (MCF-7 cells; 72 h exposure) | SMILES | IC50 (MCF-10A cells) [µM]
5 | 91.5 ± 0.6 | 128 (≈ 429 µM) | 64 (≈ 215 µM) | – | O=C1c2ccccc2C(=O)N1c1nc2ccc(F)cc2s1 [3b, 2-(6-Fluoro-1,3-benzothiazol-2-yl)-1H-isoindole-1,3(2H)-dione] | 151.9 ± 1.1
6 | > 500 | 128 (≈ 367 µM) | 64 (≈ 184 µM) | did not possess any activity | O=C1c2ccccc2C(=O)N1c1nc2ccc(C(F)(F)F)cc2s1 [3c, 2-[6-Trifluoromethyl-1,3-benzothiazol-2-yl]-1H-isoindole-1,3(2H)-dione] | > 500
7 | 66 ± 1.2 | > 512 | > 512 | – | Cc1ccc2nc(N3C(=O)c4ccccc4C3=O)sc2c1 [3d, 2-[6-Methyl-1,3-benzothiazol-2-yl]-1H-isoindole-1,3(2H)-dione] | > 500
8 | 223.1 ± 0.9 | 64 (≈ 206 µM) | 64 (≈ 206 µM) | – | COc1ccc2nc(N3C(=O)c4ccccc4C3=O)sc2c1 [3e, 2-[6-Methoxy-1,3-benzothiazol-2-yl]-1H-isoindole-1,3(2H)-dione] | > 500
